From US20260240836A1, “ENHANCER OF PHYSIOLOGICAL ACTIVITY OF HEPATOCYTE GROWTH FACTOR” (KYOWA HAKKO BIO CO., LTD., priority 2023, published 2026) come the findings set out here.

Experiment [1] concerns muscle stem cells (satellite cells). The experiment can be described thus: Muscle stem cell (satellite cell) activation by HGF, BrdU pulse labeling. Type of experiment: cell-based, rat. To be noted: for Percentage of BrdU-positive cells (%): NC 46.9; for percentage of BrdU-positive cells / enhancing effect on muscle stem cell activation by HGF: HGF 3 ng/ml; for percentage of BrdU-positive cells: trisulfide at 4000 or 8000 moles per 1 mole HGF, vs. NC, p<0.05; for enhancing effect on muscle stem cell activation by HGF: trisulfide at 8000 moles per 1 mole HGF. Here is the method:
The effect of the addition of GSSSG or LA-SSS on the muscle stem cell activation effect of HGF (3 ng/ml) was examined by the following method. GSSSG or LA-SSS was added to recombinant HGF (R&D Systems) at a molar ratio of 1:4000 (HGF:GSSSG or HGF:LA-SSS) (FIG. 2(A)) or 1:8000 (HGF:GSSSG or HGF:LA-SSS) (FIG. 2(B)). The activation effect of HGF was measured using a culture system of muscle stem cells (satellite cells). Quiescent muscle stem cells were isolated from the skeletal muscle of 8-9-month-old mature rats in accordance with a modified method of Allen et al. (1997) (Tatsumi et al. 2006), and cultured for 24 hours in DMEM containing 10% normal horse serum (DMEM-10% HS, pH 7.2). HGF mixed with GSSSG or LA-SSS was added to a final concentration of 3 ng/ml, and after further culture for 24 hours, the activation rate of muscle stem cells was measured by the bromodeoxyuridine (BrdU) pulse labeling method. Cells that had incorporated BrdU were visualized with an anti-BrdU monoclonal antibody, and the percentage of positive cells was used as an indicator of muscle stem cell activation (Tatsumi et al. 1998).
In FIG. 2, NC: negative control (no addition), PC: positive control (HGF only addition), A′: addition of GSSSG and HGF (3 ng/ml), A: addition of GSSSG, B′: addition of LA-SSS and HGF (3 ng/ml), B: addition of LA-SSS.
The effect of the addition of GSSSG or LA-SSS on the muscle stem cell activation effect of HGF (1 ng/ml) was examined in the same manner as in Example 2, except that the final concentration of HGF was 1 ng/ml instead of 3 ng/ml.
In Table 3 and FIG. 4, NC: negative control (no addition), PC′: positive control (HGF (I ng/ml) only addition), A′: addition of GSSSG and HGF (I ng/ml), A: addition of GSSSG, B′: addition of LA-SSS and HGF (1 ng/ml), B: addition of LA-SSS, PC: positive control (HGF (3 ng/ml) only addition).

The target in experiment [2] is T1, binding between HGF and c-Met (Homo sapiens, UniProt P14210).
T1 construct: purchased R&D Systems
In words: ELISA-like HGF-c-Met binding assay on plate with immobilized recombinant c-Met. To be noted: NC set to 1. The method, then: The effect of the addition of glutathione trisulfide (GSSSG) or lipoic acid trisulfide (LA-SSS) on the binding (affinity) between HGF and c-Met was examined by the following method. GSSSG or LA-SSS was added to recombinant HGF (R&D Systems) at a molar ratio of 1:4000 (HGF:GSSSG or HGF:LA-SSS) (FIG. 1(A)) or 1:8000 (HGF:GSSSG or HGF:LA-SSS) (FIG. 1(B)). An ELISA-like HGF-c-Met binding assay was performed using a 96-well cluster plate with immobilized recombinant c-Met (R&D Systems) (Tatsumni et al. 2002; the principle of this method is schematically shown in FIG. 1(C)). Table 2 and FIGS. 1(A) and (B) show the relative values of each experimental group, with the A450-535 nm (absorbance at 450 nm minus absorbance at 535 nm) of the negative control (NC) set to 1.
In Table 2 and FIG. 1, NC: negative control (no addition), PC: positive control (HGF only addition), PC′: addition of solvent used to dissolve GSSSG and HGF, A′: addition of solvent used to dissolve GSSSG, GSSSG, and HGF (1 ng/ml), A: addition of solvent used to dissolve GSSSG and GSSSG, PC″: addition of solvent used to dissolve LA-SSS and HGF, B′: addition of solvent used to dissolve LA-SSS, LA-SSS, and HGF (1 ng/ml), B: addition of solvent used to dissolve LA-SSS and LA-SSS.

Setting [3] is: HGF 1 ng/ml present, trisulfide at 1:8000 molar ratio, PC′ = HGF 1 ng/ml only.
The mark [4] stands for this setting: 1:4000 series, trisulfide and its solvent without HGF.
Setting [5] is: 1:8000 series, trisulfide and its solvent without HGF.
[6] abbreviates: HGF:A,B molar ratio 1:4000 series, HGF 1 ng/mL present, PC′/PC″ = HGF plus solvent only.
Setting [7] is: HGF:A,B molar ratio 1:8000 series, HGF 1 ng/mL present, PC′/PC″ = HGF plus solvent only.

T1 sequence (P14210 32-494 limits assumed): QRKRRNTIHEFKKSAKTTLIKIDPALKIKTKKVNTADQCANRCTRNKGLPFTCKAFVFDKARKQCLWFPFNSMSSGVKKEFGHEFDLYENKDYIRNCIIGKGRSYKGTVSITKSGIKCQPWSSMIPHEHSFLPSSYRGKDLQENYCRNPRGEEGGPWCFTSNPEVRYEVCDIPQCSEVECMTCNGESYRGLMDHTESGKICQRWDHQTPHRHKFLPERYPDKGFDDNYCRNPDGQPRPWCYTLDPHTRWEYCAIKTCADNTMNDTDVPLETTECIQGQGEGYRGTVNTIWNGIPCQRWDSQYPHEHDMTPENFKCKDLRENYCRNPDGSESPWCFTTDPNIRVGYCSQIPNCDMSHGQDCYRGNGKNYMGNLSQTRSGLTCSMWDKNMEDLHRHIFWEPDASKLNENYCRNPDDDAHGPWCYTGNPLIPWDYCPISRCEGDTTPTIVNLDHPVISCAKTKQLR

Turning to `N[C@@H](CCC(=O)N[C@@H](CSSSC[C@H](NC(=O)CC[C@H](N)C(=O)O)C(=O)NCC(=O)O)C(=O)NCC(=O)O)C(=O)O` [GSSSG, glutathione trisulfide], the “Percentage of BrdU-positive cells (%)” value in experiment [1] (setting [3]) is recorded as “increased”; in experiment [1] (HGF 1 ng/ml present, trisulfide at 1:8000 molar ratio, PC′ = HGF 1 ng/ml only, listed as A′), 57.5%; in experiment [1] (trisulfide alone, without HGF), 47.5%. Further, in experiment [1], the “percentage of BrdU-positive cells” value is “significantly increased”. The “enhancing effect on muscle stem cell activation by HGF” value in experiment [1] is given as “not observed”. The “A450-535 um (Relative units) (Average value)” value (shortened to “A450-535 um (Relative units)”) in experiment [2] (setting [4]) is 1.21 Relative units; in experiment [2] (setting [5]), 1.16 Relative units; in experiment [2] (setting [6]), “increased”; in experiment [2] (HGF:A,B molar ratio 1:4000 series, HGF 1 ng/mL present, PC′/PC″ = HGF plus solvent only, listed as A′), 9.67 Relative units; in experiment [2] (setting [7]) it was “significantly increased”; in experiment [2] (HGF:A,B molar ratio 1:8000 series, HGF 1 ng/mL present, PC′/PC″ = HGF plus solvent only, listed as A′), 11.22 Relative units.
For the molecule `O=C(O)CCCCC1CCSSS1` (stereo not drawn) [LA-SSS, lipoic acid trisulfide], the “Percentage of BrdU-positive cells (%)” value in experiment [1] (setting [3]) was “significantly increased”; in experiment [1] (HGF 1 ng/ml present, trisulfide at 1:8000 molar ratio, PC′ = HGF 1 ng/ml only, listed as B′), 64.2%; in experiment [1] (trisulfide alone, without HGF), 48.8%. Also, in experiment [1], the “percentage of BrdU-positive cells” value was “significantly increased”. For the same molecule, the “enhancing effect on muscle stem cell activation by HGF” value in experiment [1] is given as “not observed”. The “A450-535 um (Relative units)” value was 1.28 Relative units in experiment [2] (setting [4]); 1.14 Relative units in experiment [2] (setting [5]); “increased” in experiment [2] (setting [6]); 9.55 Relative units in experiment [2] (HGF:A,B molar ratio 1:4000 series, HGF 1 ng/mL present, PC′/PC″ = HGF plus solvent only, listed as B'); “significantly increased” in experiment [2] (setting [7]); 19.60 Relative units in experiment [2] (HGF:A,B molar ratio 1:8000 series, HGF 1 ng/mL present, PC′/PC″ = HGF plus solvent only, listed as B′).
Consider “HGF: recombinant hepatocyte growth factor (R&D Systems); positive control, alone or with trisulfide solvent”, for which the “Percentage of BrdU-positive cells (%)” value in experiment [1] (setting [3]) is on record as “significantly increased”; in experiment [1] (HGF 1 ng/ml present, trisulfide at 1:8000 molar ratio, PC′ = HGF 1 ng/ml only, listed as PC′) it was 55.3%; in experiment [1] (HGF 3 ng/ml only addition), 65.9%. Also, the “A450-535 um (Relative units)” value came to 9.39 Relative units in experiment [2] (HGF:A,B molar ratio 1:4000 series, HGF 1 ng/mL present, PC′/PC″ = HGF plus solvent only, listed as PC′); 9.00 Relative units in experiment [2] (HGF:A,B molar ratio 1:4000 series, HGF 1 ng/mL present, PC′/PC″ = HGF plus solvent only, listed as PC″); 10.21 Relative units in experiment [2] (HGF:A,B molar ratio 1:8000 series, HGF 1 ng/mL present, PC′/PC″ = HGF plus solvent only, listed as PC′); 10.04 Relative units in experiment [2] (HGF:A,B molar ratio 1:8000 series, HGF 1 ng/mL present, PC′/PC″ = HGF plus solvent only, listed as PC″); 9.85 Relative units in experiment [2] (positive control, HGF only addition).
